The values that follow come from patent publication US11267825B2 (AICURIS GMBH & CO. KG, priority 2017, dated 2022).

A value given as a limit tells only on which side of the number the result lay.

The subject of one test is HBV. The experiment in a line: Determination of HBV DNA from the supernatants of HepAD38 cells (anti-HBV activity). The class given is cell-based, hepatitis B virus. The note with it: Hepatitis B virus, 144 h; HBV DNA in HepAD38 supernatant at day 6; read-out: Cell Activity (EC50). An outline of the steps: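 EC50 values were obtained by non-linear regression of HBV DNA copy numbers measured by qPCR against pCH-9/3091 plasmid standards. The DNA came from filtered supernatants collected on day 6. Before that, tetracycline-withdrawn HepAD38 cells had been exposed to serial half-log compound dilutions, with tetracycline-treated cells as the non-producing control.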

The next test has as its target HBV core protein (UniProt P03146). It counts as biochemical. The settings on record: read-out: Assembly Activity (IC50); BODIPY-FL labelled core protein, assembly started with NaCl, read after 6 min. An outline of the steps:
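Compounds tested at 8 concentrations in 0.5-log steps from 100, 31.6 or 10 μM against 1.0–2.0 μM BODIPY-FL-labelled Cys150 core dimers (residues 1–149), 50 mM HEPES pH 7.5. NaCl ([…] final) triggered assembly; quenching read at 6 min, 477/525 nm, with 2.5 M and 0 M NaCl as controls; EC50 by nonlinear fit.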

Sequence of HBV core protein (P03146 whole entry, looked up, the tested form may be a part): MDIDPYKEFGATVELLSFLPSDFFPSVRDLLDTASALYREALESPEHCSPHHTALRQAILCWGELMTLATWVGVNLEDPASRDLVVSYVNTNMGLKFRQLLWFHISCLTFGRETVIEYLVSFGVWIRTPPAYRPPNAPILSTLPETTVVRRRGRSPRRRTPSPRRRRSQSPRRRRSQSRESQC

Broadly, the EC50 is the concentration needed to bring the measured effect to its halfway point. A word on the IC50: it is the point on the concentration scale where inhibition reaches its midpoint. For the compound `Nc1nc2c(s1)CN(C(=O)c1cc3cccc(OC(F)F)c3[nH]1)CC2` [Example 173, 5-(7-(difluoromethoxy)-1H-indole-2-carbonyl)-4H,5H,6H,7H-[1,3]thiazolo[5,4-c]pyridin-2-amine], in the test with HBV, the EC50 was in the range of 1 to 10 µM. Further, the IC50 at HBV core protein is under 5 µM.

On to `CC(F)(F)c1cc(F)cc2[nH]c(C(=O)N3CCc4nc(NCC5CCOC5)sc4C3)cc12` (centres unmarked) [Example 327, 5-[4-(1,1-difluoroethyl)-6-fluoro-1H-indole-2-carbonyl]-N-[(oxolan-3-yl)methyl]-4H,5H,6H,7H-[1,3]thiazolo[5,4-c]pyridin-2-amine], for which, in the test with HBV, the 50% effective concentration (EC50) was under 1 µM. In addition, the concentration for half-maximal inhibition (IC50) at HBV core protein is under 5 µM.

As to `O=C(c1cc2c(C(F)F)cccc2[nH]1)N1CCc2nc(NCC3CCOC3)sc2C1` (centres unmarked) [Example 325, 5-[4-(difluoromethyl)-1H-indole-2-carbonyl]-N-[(oxolan-3-yl)methyl]-4H,5H,6H,7H-[1,3]thiazolo[5,4-c]pyridin-2-amine], in the test with HBV, the 50% effective concentration (EC50) is under 1 µM. At HBV core protein, the IC50 was under 5 µM.

Take `CCc1cccc2[nH]c(C(=O)N3CCc4nc(NC5(CO)CCC5)sc4C3)cc12` [Example 300, (1-{[5-(4-ethyl-1H-indole-2-carbonyl)-4H,5H,6H,7H-[1,3]thiazolo[5,4-c]pyridin-2-yl]amino}cyclobutyl)methanol]: the EC50 with HBV is under 1 µM. Moreover, at HBV core protein, the IC50 is under 5 µM.

As for `COC(=O)[C@@H]1C[C@H](Nc2nc3c(s2)CN(C(=O)c2cc4ccccc4[nH]2)CC3)CN1` [Example 289, Methyl (2S,4S)-4-{[5-(1H-indole-2-carbonyl)-4H,5H,6H,7H-[1,3]thiazolo[5,4-c]pyridin-2-yl]amino}pyrrolidine-2-carboxylate], the EC50 in the test on HBV was under 100 µM. In addition, the IC50 on HBV core protein is under 5 µM.

On to `O=C(c1cc2ccccc2[nH]1)N1CCc2nc(N[C@H]3CC[C@@H](O)C3)sc2C1` [Example 396, (1R,3S)-3-{[5-(1H-indole-2-carbonyl)-4H,5H,6H,7H-[1,3]thiazolo[5,4-c]pyridin-2-yl]amino}cyclopentan-1-ol], for which, in the test with HBV, the EC50 is under 1 µM. Further, the IC50 at HBV core protein was under 5 µM.

Regarding `CCc1cc(F)cc2[nH]c(C(=O)N3CCc4nc(N[C@H]5CC[C@@H](O)CC5)sc4C3)cc12` [Example 394, (1s,4s)-4-{[5-(4-ethyl-6-fluoro-1H-indole-2-carbonyl)-4H,5H,6H,7H-[1,3]thiazolo[5,4-c]pyridin-2-yl]amino}cyclohexan-1-ol], in the test with HBV, the EC50 was under 1 µM. Further, the IC50 at HBV core protein is under 5 µM.

As to `O=C(c1cc2ccccc2[nH]1)N1CCc2nc(NCC3COC3)sc2C1` [Example 126, 5-(1H-indole-2-carbonyl)-N-[(oxetan-3-yl)methyl]-4H,5H,6H,7H-[1,3]thiazolo[5,4-c]pyridin-2-amine], in the test with HBV, the EC50 was in the range of 1 to 10 µM. In addition, at HBV core protein, the IC50 fell in the range of 5 to 10 µM.

Regarding `CCNC(=O)C1(CNc2nc3c(s2)CN(C(=O)c2cc4ccccc4[nH]2)CC3)CCC1` [Example 417, N-ethyl-1-({[5-(1H-indole-2-carbonyl)-4H,5H,6H,7H-[1,3]thiazolo[5,4-c]pyridin-2-yl]amino}methyl)cyclobutane-1-carboxamide], in the test with HBV, the EC50 is under 1 µM. Further, the IC50 on HBV core protein was under 5 µM.

As for `O=C(c1cc2cc(F)c(Cl)cc2[nH]1)N1CCc2nc(NCC3CCOC3)sc2C1` (centres unmarked) [Example 239, 5-(6-chloro-5-fluoro-1H-indole-2-carbonyl)-N-[(oxolan-3-yl)methyl]-4H,5H,6H,7H-[1,3]thiazolo[5,4-c]pyridin-2-amine], the EC50 with HBV was under 1 µM. Moreover, the IC50 on HBV core protein is under 5 µM.

Take `O=C(c1cc2ccc(Cl)cc2[nH]1)N1CCc2nc(N[C@H]3CC[C@@H](O)CC3)sc2C1` [Example 301, (1s,4s)-4-{[5-(6-chloro-1H-indole-2-carbonyl)-4H,5H,6H,7H-[1,3]thiazolo[5,4-c]pyridin-2-yl]amino}cyclohexan-1-ol]: the EC50 in the test on HBV was under 1 µM. The IC50 on HBV core protein is under 5 µM.

For `CCc1cccc2[nH]c(C(=O)N3CCc4nc(N)sc4C3)cc12` [Example 81, 5-(4-ethyl-1H-indole-2-carbonyl)-4H,5H,6H,7H-[1,3]thiazolo[5,4-c]pyridin-2-amine], the EC50 with HBV is under 1 µM. For the same compound, the IC50 on HBV core protein was under 5 µM.

In the case of `CCc1cccc2[nH]c(C(=O)N3CCc4nc(N[C@H]5CC[C@@H](O)CC5)sc4C3)cc12` [Example 335, (1s,4s)-4-{[5-(4-ethyl-1H-indole-2-carbonyl)-4H,5H,6H,7H-[1,3]thiazolo[5,4-c]pyridin-2-yl]amino}cyclohexan-1-ol], in the test with HBV, the 50% effective concentration (EC50) is under 1 µM. Also, the IC50 at HBV core protein was under 5 µM.

Turning to `O=C(c1cc2ccccc2[nH]1)N1CCc2nc(NCC(F)(F)F)sc2C1` [Example 118, 5-(1H-indole-2-carbonyl)-N-(2,2,2-trifluoroethyl)-4H,5H,6H,7H-[1,3]thiazolo[5,4-c]pyridin-2-amine], the EC50 in the test on HBV was under 1 µM. The IC50 at HBV core protein is under 100 µM.

`N#Cc1ccc(F)c2[nH]c(C(=O)N3CCc4nc(N)sc4C3)cc12` [Example 79, 2-{2-amino-4H,5H,6H,7H-[1,3]thiazolo[5,4-c]pyridine-5-carbonyl}-7-fluoro-1H-indole-4-carbonitrile]: in the test on HBV, the concentration giving a half-maximal response (EC50) fell in the range of 1 to 10 µM. Further, the IC50 on HBV core protein is under 100 µM.

Regarding `Nc1nc2c(s1)CN(C(=O)c1cc3c(Cl)c(F)ccc3[nH]1)CC2` [Example 80, 5-(4-chloro-5-fluoro-1H-indole-2-carbonyl)-4H,5H,6H,7H-[1,3]thiazolo[5,4-c]pyridin-2-amine], in the test with HBV, the EC50 was under 1 µM. The IC50 on HBV core protein is under 5 µM.

In the case of `O=C(c1cc2ccc(Cl)cc2[nH]1)N1CCc2nc(NCC3CCOC3)sc2C1` (centres unmarked) [Example 125, 5-(6-chloro-1H-indole-2-carbonyl)-N-[(oxolan-3-yl)methyl]-4H,5H,6H,7H-[1,3]thiazolo[5,4-c]pyridin-2-amine], in the test with HBV, the EC50 was under 1 µM. Also, at HBV core protein, the IC50 was under 5 µM.

Consider `O=C(c1cc2ccccc2[nH]1)N1CCc2nc(NC3COC3)sc2C1` [Example 127, 5-(1H-indole-2-carbonyl)-N-(oxetan-3-yl)-4H,5H,6H,7H-[1,3]thiazolo[5,4-c]pyridin-2-amine], for which the EC50 with HBV was under 1 µM. Further, at HBV core protein, the IC50 is under 5 µM.

As to `O=C(c1cc2c(F)cc(F)cc2[nH]1)N1CCc2nc(OCCO)sc2C1` [Example 102, 2-{[5-(4,6-difluoro-1H-indole-2-carbonyl)-4H,5H,6H,7H-[1,3]thiazolo[5,4-c]pyridin-2-yl]oxy}ethan-1-ol], the EC50 in the test on HBV fell in the range of 1 to 10 µM. In addition, the IC50 at HBV core protein was 5 to 10 µM.

On to `COCC(C)Nc1nc2c(s1)CN(C(=O)c1cc3ccccc3[nH]1)CC2` (centres unmarked) [Example 70, 5-(1H-indole-2-carbonyl)-N-(1-methoxypropan-2-yl)-4H,5H,6H,7H-[1,3]thiazolo[5,4-c]pyridin-2-amine], for which the EC50 with HBV was under 1 µM. For the same compound, the IC50 at HBV core protein is under 5 µM.

Consider `Cc1nc2c(s1)CN(C(=O)c1cc3c(Cl)cc(Cl)cc3[nH]1)CC2` [Example 188, 4,6-dichloro-2-{2-methyl-4H,5H,6H,7H-[1,3]thiazolo[5,4-c]pyridine-5-carbonyl}-1H-indole], for which the EC50 in the test with HBV was in the range of 1 to 10 µM. In addition, at HBV core protein, the IC50 fell in the range of 5 to 10 µM.

In the case of `O=C(c1cc2c(Cl)cc(F)cc2[nH]1)N1CCc2nc(NCC3CCOC3)sc2C1` (centres unmarked) [Example 101, 5-(4-chloro-6-fluoro-1H-indole-2-carbonyl)-N-[(oxolan-3-yl)methyl]-4H,5H,6H,7H-[1,3]thiazolo[5,4-c]pyridin-2-amine], the EC50 with HBV was under 1 µM. Besides, on HBV core protein, the IC50 is under 5 µM.
